Results as given in paper PMC4501720 (PLoS ONE, 2015).

What follows are substances tested on whole blood cells of group 3 pigs vaccinated with BCG-pAg85A.
Format: cell-based, pigs (Sus scrofa domestica)

Substance	IFN-γ levels, BCG / pAg85A animal number 1	IFN-γ levels, BCG / pAg85A animal number 2	IFN-γ levels, BCG / pAg85A animal number 3	IFN-γ levels, BCG / pAg85A animal number 4	IFN-γ levels, BCG / pAg85A animal number 5	IFN-γ levels, BCG / pAg85A animal number 6	group 3 animals recognizing the peptide (significant IFN-γ levels)
131–150: synthetic overlapping peptide of mature Ag85A, aa 131–150 (SALTLAIYHPQQFVYAGAMS; UniProt P9WQP3 174-193, looked up, fragment)	11,114 pg/mL	1,754 pg/mL	5,306 pg/mL	868 pg/mL	11,072 pg/mL	4,687 pg/mL	6/6 and all six
171–190: synthetic overlapping peptide of mature Ag85A, aa 171–190 (AGGYKASDMWGPKEDPAWQR; UniProt P9WQP3 214-233, looked up, fragment)	328 pg/mL	<5 pg/mL	1,066 pg/mL	22 pg/mL	170 pg/mL	<5 pg/mL	–
181–200: synthetic overlapping peptide of mature Ag85A, aa 181–200 (GPKEDPAWQRNDPLLNVGKL; UniProt P9WQP3 224-243, looked up, fragment)	33 pg/mL	<5 pg/mL	8 pg/mL	17 pg/mL	<5 pg/mL	<5 pg/mL	–
191–210: synthetic overlapping peptide of mature Ag85A, aa 191–210 (NDPLLNVGKLIANNTRVWVY; UniProt P9WQP3 234-253, looked up, fragment)	266 pg/mL	<5 pg/mL	156 pg/mL	38 pg/mL	560 pg/mL	<5 pg/mL	–
201–220: synthetic overlapping peptide of mature Ag85A, aa 201–220 (IANNTRVWVYCGNGKPSDLG; UniProt P9WQP3 244-263, looked up, fragment)	21 pg/mL	<5 pg/mL	1,315 pg/mL	<5 pg/mL	<5 pg/mL	197 pg/mL	–
211–230: synthetic overlapping peptide of mature Ag85A, aa 211–230 (CGNGKPSDLGGNNLPAKFLE; UniProt P9WQP3 254-273, looked up, fragment)	46 pg/mL	<5 pg/mL	13 pg/mL	<5 pg/mL	<5 pg/mL	218 pg/mL	–
221–240: synthetic overlapping peptide of mature Ag85A, aa 221–240 (GNNLPAKFLEGFVRTSNIKF; UniProt P9WQP3 264-283, looked up, fragment)	470 pg/mL	4,455 pg/mL	1,075 pg/mL	<5 pg/mL	303 pg/mL	2,980 pg/mL	–
231–250: synthetic overlapping peptide of mature Ag85A, aa 231–250 (GFVRTSNIKFQDAYNAGGGH; UniProt P9WQP3 274-293, looked up, fragment)	11,639 pg/mL	13,693 pg/mL	423 pg/mL	<5 pg/mL	1,018 pg/mL	665 pg/mL	–
241–260: synthetic overlapping peptide of mature Ag85A, aa 241–260 (QDAYNAGGGHNGVFDFPDSG; UniProt P9WQP3 284-303, looked up, fragment)	40 pg/mL	<5 pg/mL	<5 pg/mL	<5 pg/mL	<5 pg/mL	66 pg/mL	–
251–270: synthetic overlapping peptide of mature Ag85A, aa 251–270 (NGVFDFPDSGTHSWEYWGAQ; UniProt P9WQP3 294-313, looked up, fragment)	410 pg/mL	317 pg/mL	<5 pg/mL	11 pg/mL	161 pg/mL	163 pg/mL	–
261–280: synthetic overlapping peptide of mature Ag85A, aa 261–280 (THSWEYWGAQLNAMKPDLQR; UniProt P9WQP3 304-323, looked up, fragment)	31 pg/mL	<5 pg/mL	<5 pg/mL	157 pg/mL	728 pg/mL	1,240 pg/mL	–
275–294: synthetic overlapping peptide of mature Ag85A, aa 275–294 (KPDLQRALGATPNTGPAPQG; UniProt P9WQP3 318-337, looked up, fragment)	57 pg/mL	<5 pg/mL	<5 pg/mL	<5 pg/mL	114 pg/mL	77 pg/mL	–
Ag85A tub: recombinant E. coli derived histidine-tagged Ag85A of M. tuberculosis	145,331 pg/mL	50,084 pg/mL	68,850 pg/mL	3,712 pg/mL	27,544 pg/mL	14,506 pg/mL	–

System: whole blood cells of group 3 pigs vaccinated with BCG-pAg85A
Format: cell-based, pigs (Sus scrofa domestica)
Remark: another data set of the same source

Substance	animals with positive proliferative response to peptide
131–150: synthetic overlapping peptide of mature Ag85A, aa 131–150 (SALTLAIYHPQQFVYAGAMS; UniProt P9WQP3 174-193, looked up, fragment)	5/6
